These results are taken from ChEMBL document CHEMBL1135461, “Conformations and receptor activity of desmopressin analogues, which contain gamma-turn mimetics or a psi[CH(2)O] isostere” (2002).

For this assay, the system named is Rattus norvegicus. Put plainly: In vivo antidiuretic activity in female Sprague-Dawley rats by intravenous administration using Vasopressin house standard (561 IU/mg).

As to `C[C@@H]1NC(=O)[C@H](Cc2ccccc2)NC(=O)[C@H](Cc2ccc(O)cc2)NC(=O)CCSSC[C@@H](C(=O)N2CCC[C@H]2C(=O)N[C@H](CCCN=C(N)N)C(=O)NCC(N)=O)NC(=O)[C@H](CC(N)=O)NC1=O`, the Agonist activity was 645 IU mg-1. Next, `C[C@@H]1OC[C@H](Cc2ccccc2)NC(=O)[C@H](Cc2ccc(O)cc2)NC(=O)CCSSC[C@@H](C(=O)N2CCC[C@H]2C(=O)N[C@H](CCCN=C(N)N)C(=O)NCC(N)=O)NC(=O)[C@H](CC(N)=O)NC1=O`: 0.56 IU mg-1; `CC1OC2CN(C1=O)[C@@H](CC(N)=O)C(=O)N[C@H](C(=O)N1CCC[C@H]1C(=O)N[C@H](CCCN=C(N)N)C(=O)NCC(N)=O)CSSCCC(=O)N[C@@H](Cc1ccc(O)cc1)C(=O)N[C@H]2Cc1ccccc1` (stereo in doubt; 6): 0.0026 IU mg-1.

Compound `N=C(N)NCCC[C@@H](NC(=O)[C@@H]1CCCN1C(=O)[C@@H]1CSSCCC(=O)N[C@@H](Cc2ccc(O)cc2)C(=O)N[C@@H](Cc2ccccc2)C(=O)N[C@@H](CCC(N)=O)C(=O)N[C@@H](CC(N)=O)C(=O)N1)C(=O)NCC(N)=O` [DESMOPRESSIN] gave an Agonist activity of 1000 IU mg-1. For `N=C(N)NCCC[C@H](NC(=O)[C@@H]1CCCN1C(=O)[C@@H]1CSSC[C@H](N)C(=O)N[C@@H](Cc2ccc(O)cc2)C(=O)N[C@@H](Cc2ccccc2)C(=O)N[C@@H](CCC(N)=O)C(=O)N[C@@H](CC(N)=O)C(=O)N1)C(=O)NCC(N)=O` [VASOPRESSIN], the Agonist activity is recorded as 561 IU mg-1.
